By inhibition is commonly meant the change of the read-out against control, counted positive when it falls. As usually defined, the IC50 is the point on the concentration scale where inhibition reaches its midpoint. The low end stands for higher potency, the high end for lower potency. Usually Ki stands for the dissociation constant of the complex between target and ligand, obtained from inhibition or displacement. A lower Ki goes with higher affinity.

Each structure is given as a SMILES string. Several values for one entry are separate records, joined by “and”; a condition that tells them apart may be missing. Equal values may be shown once. Bounds are passed on as bounds.

Type in all cases: biochemical
For assay [1], the target named is T1, β-secretase (BACE) (Homo sapiens, UniProt P56817).
T1 construct: purchased Panvera
The assay is described as follows: BACE % Inhibition Assay ((Aedens)-[…]-(Dabcyl K-amide) substrate). To be noted: % error ±10%; for inhibition at 3 µM: 3 μM compound; for inhibition at 10 µM: 10 μM compound. On the procedure:
The substrate stock solution was prepared in DMSO as a 10 mg/mL solution. The substrate working solution was prepared by diluting the 10 mg/mL stock solution with substrate assay buffer to a final concentration of […]. The β-secretase (BACE) working solution was prepared by diluting a 0.83 mg/mL BACE stock solution with enzyme assay buffer to a final concentration of 4 μg/mL.
Test compounds were dissolved in DMSO to 10 mM.
The screening procedure for this assay was as follows: 15 μL of BACE working solution was pipetted into each well of a 96-well plate. To each well was then pipetted 2 μL of test compound at the selected concentration. Test compound and BACE were then mixed with a pipettor and incubated for 20 min at room temperature. To each well was then added 10 μL of the substrate working solution. The plates were then incubated for 1 hour at room temperature.
The procedure for the blank was as follows. 15 μL of assay buffer was pipetted into each well to be used as a blank control. To each well was then added 2 μL of vehicle and 10 μL of substrate working solution. The plates were then incubated for 1 hour at room temperature.
The procedure for the positive control was as follows: 15 μl of BACE working solution was pipetted into each well to be used as a positive control. To each well was then pipetted 2 μL of vehicle. Vehicle and BACE were then mixed with a pipettor and incubated for 20 min at room temperature. To each well was then added 10 μL of the substrate working solution. The plates were the incubated for 1 hour at room temperature.
For test compounds, % inhibition was determined at each concentration as follows: […]

The target of assay [2] is T1, β-secretase (BACE). Description: BACE Assay-2 (FS1 substrate, IC50 and Ki). To be noted: procedure of Example 159, FS1 substrate. On the procedure:
The FS1-substrate stock solution was prepared in DMSO as a 10 mg/mL solution. The FS1-substrate working solution was prepared by diluting the 10 mg/mL stock solution with substrate assay buffer to a final concentration of […]. The β-secretase (BACE) working solution was prepared by diluting a 0.83 mg/mL BACE stock solution with enzyme assay buffer to a final concentration of 4 μg/mL.
Test compounds were dissolved in DMSO at 10 mM.
The procedure for this assay was as follows: 15 μL of BACE working solution was pipetted into each well of a 96-well plate. To each well was then pipetted 2 μL of test compound at the selected concentration. Test compound and BACE were then mixed with a pipettor and incubated for 20 min at room temperature. To each well was then added 10 μL of the FS1 substrate working solution.
The procedure for the positive control was as follows:15 μL of BACE working solution was pipetted into each well to be used as a positive control. To each well was then pipetted 2 μL of vehicle. Vehicle and BACE were then mixed with a pipettor and incubated for 20 min at room temperature. To each well was then added 10 μL of the FS1 substrate working solution.
For test compounds, measured at multiple concentrations, the measured T0 and T60 values were used to calculate an IC50 value using Graphpad Software (or PIR). For test compounds, Ki inhibition was determined as follows: For each compound concentration and positive control, rate of cleavage of substrate (Vi, where i=compound concentration in μM) was determined as Δ Fluorescence/Δ time (min). Cleavage rates (Vi) were plotted as a function of inhibitor concentration in μM [I]. The Ki was then determined by fitting the following equation to the graph of [I] vs Vi Y=aVmax/(50+24*(1+X/Ki)),

Assay [3] has as its target T1, β-secretase (BACE). Description: BACE Assay-1 (MCA-substrate, IC50). The following applies: procedure of Example 158. The protocol:
The following standards are reagents were used in this assay: Sodium Citrate trisodium salt dihydrate (Sigma), Citric Acid monohydrate (Merck), PEG8000 (Sigma), MCA-substrate (Bachem), β-secretase (BACE) (Panvera), 96-well plate zwart (Costar (Elscolab)), StatVal (Bachem).
The following standard assay buffer solution was prepared and used in this assay: 0.05 M, pH 5.0 mixture of sodium citrate trisodium salt dihydrate (9.56 g), citric acid monohydrate (3.68 g) and PEG8000 (0.50 g).
The MCA-substrate stock solution was prepared by mixing 10 mg MCA-substrate with 5 mL DMSO for a final solution concentration of 2.0 mg/mL. The substrate work solution was prepared by mixing 0.1 mL substrate in 1.90 mL assay buffer for a final concentration of 0.05 mM. The β-secretase (BACE) work solution was prepared by mixing 8 μL BACE in 2 mL assay buffer for a final concentration of 10 µg/mL.
The screen procedure for this assay was as follows. 60 μL of assay buffer was pippeted into each well of a 96-well plate. To each well was then pipetted 1 μL of test compound at the selected concentration. To each well was then added 20 μL of the β-secretase work solution and […] of the MCA-substrate stock solution.
The procedure for the blank was as follows. 80 μL of assay buffer was pipetted into each well to be used as a blank control. To each well was then added 1 μL of DMSO and 20 μL of MCA-substrate solution in each well.
The procedure for the positive control was as follows. 60 μL of assay buffer was pipetted into each well to be used as a positive control. To each well was then added 1 μL of DMSO, 20 μL of BACE work solution and 20 μL of MCA-substrate stock solution.
For test compounds, measured at multiple concentrations, the measured T0 and T60 values were used to calculate an IC50 value using Graphpad Software (or PIR).

For assay [4], the target named is T1, β-secretase (BACE). The assay is described as follows: BACE FS1 % Inhibition Assay. To be noted: read-out: % Inhibition (FS); for inhibition at 0.3 µM: 0.3 μM test compound; for inhibition at 1 µM: 1 μM test compound; for inhibition at 3 µM: 3 μM test compound. In outline:
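Percent inhibition per compound concentration was referenced to vehicle-treated enzyme and no-enzyme wells. Enzyme at a 4 μg/mL working stock plus compound was mixed for 20 min at room temperature before the FS1 substrate (300 μg/mL working stock) was added for a 1 h room-temperature reaction.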

T1 sequence (P56817 46-501): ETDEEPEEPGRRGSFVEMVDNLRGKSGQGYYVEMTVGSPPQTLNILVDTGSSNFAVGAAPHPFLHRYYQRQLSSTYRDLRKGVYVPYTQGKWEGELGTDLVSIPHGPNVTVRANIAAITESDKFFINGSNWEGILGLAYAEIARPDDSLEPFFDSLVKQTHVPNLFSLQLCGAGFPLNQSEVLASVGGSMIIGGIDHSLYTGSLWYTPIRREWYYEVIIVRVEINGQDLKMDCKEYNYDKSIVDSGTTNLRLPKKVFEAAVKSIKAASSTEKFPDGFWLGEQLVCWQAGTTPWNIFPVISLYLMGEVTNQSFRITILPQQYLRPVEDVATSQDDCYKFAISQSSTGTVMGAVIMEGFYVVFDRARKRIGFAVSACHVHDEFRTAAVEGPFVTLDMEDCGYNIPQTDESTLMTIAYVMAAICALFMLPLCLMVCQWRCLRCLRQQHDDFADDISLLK

As to `CN(C(=O)CC(CC(=O)N(C)C1CCCCC1)N1Cc2cc(Oc3ccccc3)ccc2N=C1N)C1CCCCC1` [Compound 107, 3-(2-Amino-6-phenoxy-4H-quinazolin-3-yl)-pentanedioic acid bis-(cyclohexyl-methyl-amide)], on β-secretase (BACE) [1], the inhibition at 3 µM turned out to be 48% and the inhibition at 10 µM worked out at 78%. Also, on β-secretase (BACE) [2], the IC50 came out at 4.58 µM and the Ki worked out at 1.2 µM. Also, the IC50 against β-secretase (BACE) [3] was 0.82 µM.

On to `CCCN1Cc2cc(Oc3cccc(NC(=O)C4CCCCC4)c3)ccc2N=C1N` [Compound 44], for which, on β-secretase (BACE) [1], the inhibition at 3 µM was under 30% and the inhibition at 10 µM came to 31%. Also, the Ki at β-secretase (BACE) [2] turned out to be 3.3 µM. For the same compound, the IC50 against β-secretase (BACE) [3] is 6.1 µM.

Turning to `CCCC(CCC(=O)N(C)C1CCCCC1)N1Cc2cc(Oc3ccccc3)ccc2N=C1N` (stereo not drawn) [Compound 86], on β-secretase (BACE) [1], the inhibition at 3 µM was determined as 72% and the inhibition at 10 µM turned out to be 80%. The same compound showed a Ki at β-secretase (BACE) [2] of 0.13 µM. Besides, the IC50 against β-secretase (BACE) [3] worked out at 0.048 µM.

As for `COc1ccccc1-c1ccc2c(c1)CN([C@@H](CCC(=O)N(C)C1CCCCC1)C1CCCCC1)C(N)=N2` [Compound 506], the Ki on β-secretase (BACE) [2] is 0.018 µM and 0.0075 µM. On β-secretase (BACE) [4], the inhibition at 0.3 µM was determined as 106%, the inhibition at 1 µM turned out to be 115% and the inhibition at 3 µM was 128%. The compound also yielded an IC50 on β-secretase (BACE) [3] of 0.03 µM.

At β-secretase (BACE) [2], `CSc1ccccc1-c1ccc2c(c1)CN(Cc1cccc(C(=O)N(C)C3CCCCC3)c1)C(N)=N2` [Compound 322] gave a Ki of 0.29 µM. At β-secretase (BACE) [4], the inhibition at 0.3 µM was under 30%, the inhibition at 1 µM is under 30% and the inhibition at 3 µM was found to be 95%. On β-secretase (BACE) [3], half-maximal inhibition (IC50) was put at 0.14 µM.

Consider `CCCN1Cc2cc(Oc3cccc(N(C#N)CC4CCCCC4)c3)ccc2N=C1N` [Compound 56], for which, on β-secretase (BACE) [1], the inhibition at 3 µM turned out to be 35% and the inhibition at 10 µM came to 79%. On β-secretase (BACE) [2], this compound displayed an IC50 of 5.4 µM and a Ki of 0.77 µM. In addition, the IC50 against β-secretase (BACE) [3] amounted to 0.97 µM.

`NC1=Nc2ccc(Oc3ccccc3)cc2CN1[C@H](CNC(=O)C1CCCCC1)C1CCCCC1` [Compound 484] displayed a Ki on β-secretase (BACE) [2] of 0.74 µM. At β-secretase (BACE) [4], the inhibition at 0.3 µM is under 30%, the inhibition at 1 µM is under 30% and the inhibition at 3 µM was 62%. On β-secretase (BACE) [3], this compound showed an IC50 of 1.1 µM.
